pIC50, pKi: −log10 of the molar value.
Biological target: T1, Tyrosine-protein phosphatase non-receptor type 1 (Homo sapiens, UniProt P18031)
T1 sequence (P18031 whole entry): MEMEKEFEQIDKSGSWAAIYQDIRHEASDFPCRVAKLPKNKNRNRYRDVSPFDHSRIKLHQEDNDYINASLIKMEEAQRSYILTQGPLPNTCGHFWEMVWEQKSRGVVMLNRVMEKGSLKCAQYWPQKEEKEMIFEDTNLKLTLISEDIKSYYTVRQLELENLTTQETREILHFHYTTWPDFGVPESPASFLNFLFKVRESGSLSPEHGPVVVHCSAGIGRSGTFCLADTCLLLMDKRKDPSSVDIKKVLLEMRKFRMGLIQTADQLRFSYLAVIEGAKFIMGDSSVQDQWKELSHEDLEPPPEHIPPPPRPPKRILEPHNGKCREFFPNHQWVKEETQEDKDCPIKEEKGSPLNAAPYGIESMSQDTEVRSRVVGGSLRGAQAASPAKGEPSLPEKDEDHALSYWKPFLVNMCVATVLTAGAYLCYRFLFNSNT
Assay: Inhibition of PTP1B assessed as pNPP hydrolysis
Conditions: not given

Row | SMILES | pKi | pIC50
1 | NC(=O)c1sc(Br)c(Br)c1OCC(=O)O |  | < 2.60
2 | O=C(O)COc1c(C(=O)Nc2ccn[nH]2)sc(Br)c1Br |  | < 2.60
3 | O=C(O)c1sc(Br)c(Br)c1OCCO |  | < 2.60
4 | O=C(O)COc1csc(Br)c1Br |  | < 2.60
5 | C=CCc1sc(Br)c(Br)c1OCC(=O)O |  | 3.78
6 | N#Cc1sc(Br)c(Br)c1OCC(=O)O |  | < 2.60
7 | O=C1CN(c2csc(-c3ccccc3)c2Br)S(=O)(=O)N1 |  | 4.54
8 | O=C(O)COc1c(C(=O)O)sc(Br)c1Br |  | 4.54
9 | C=CCOc1c(C(=O)O)sc(Br)c1Br |  | < 2.60
10 | O=C(O)c1sc(Br)c(Br)c1OCc1nn[nH]n1 |  | < 2.60
11 | O=C(O)COc1c(C(=O)N2CCOCC2)sc(Br)c1Br |  | 3.68
12 | Cc1nc(-c2sc(Br)c(Br)c2OCC(=O)O)no1 |  | < 2.60
13 | CC(C)c1nc(-c2sc(Br)c(Br)c2OCC(=O)O)no1 |  | < 2.60
14 | O=C(COc1c(C(=O)O)sc(Br)c1Br)NO |  | < 2.60
15 | O=C(O)COc1c(C(=O)CO)sc(Br)c1Br | 3.68 | 3.48
16 | O=C(O)COc1c(-c2nnn[nH]2)sc(-c2cccc(NC3CCCCC3)c2)c1Br | 4.74 | 
17 | CC1(C)CC(Nc2cccc(-c3sc(-c4nn[nH]n4)c(OCC(=O)O)c3Br)c2)CC(C)(C)C1 | 5.80 | 
18 | O=C(O)COc1cc(-c2ccccc2)sc1-c1nn[nH]n1 | 3.92 | 
19 | O=C(O)COc1c(CO)sc(Br)c1Br |  | < 2.60

Continued, values first:

Row | pKi | pIC50 | SMILES
20 | 5.37 |  | Cc1c(N2CC(=O)NS2(=O)=O)csc1-c1cccc(NC2CCN(S(=O)(=O)Cc3ccccc3)CC2)c1
21 |  | < 2.60 | NNC(=O)c1sc(Br)c(Br)c1OCC(=O)O
22 |  | < 2.60 | N#CCOc1c(C(=O)O)sc(Br)c1Br
23 |  | < 2.60 | CCc1nc(-c2sc(Br)c(Br)c2OCC(=O)O)no1
24 | 3.57 | 3.37 | O=C(O)COc1c(-c2nnn[nH]2)sc(Br)c1Br
25 |  | < 2.60 | O=C(O)c1sc(Br)c(Br)c1OCC(O)CO (stereo not drawn)
26 | 3.77 |  | Cc1c(-c2ccccc2)sc(-c2nnn[nH]2)c1OCC(=O)O
27 | 5.34 |  | CC(=O)N(c1cccc(-c2sc(-c3nn[nH]n3)c(OCC(=O)O)c2Br)c1)C1CC(C)(C)CC(C)(C)C1
28 |  | < 2.60 | CC(=O)Nc1sc(Br)c(Br)c1OCC(=O)O
29 |  | < 2.60 | O=C(O)c1sc(Br)c(Br)c1OCC(F)(F)F
30 |  | < 2.60 | O=C(O)COc1c(C(=O)Nc2nccs2)sc(Br)c1Br
31 | 4.92 |  | Cc1c(N2CC(=O)NS2(=O)=O)csc1-c1cccc(NC2CCCCC2)c1
32 | 4.70 |  | O=C(O)COc1c(-c2nnn[nH]2)sc(-c2ccccc2)c1Br
33 | 5.89 |  | Cc1c(-c2cccc(OC3CCN(S(=O)(=O)Cc4ccccc4)CC3)c2)sc(-c2nn[nH]n2)c1OCC(=O)O

Test system: not listed separately
Assay: Permeability of compound by PAMPA
Format: ADME
Conditions: read-out: permeability

Row | Papp [×10⁻⁶ cm/s] | SMILES
34 | 0.19 | Cc1c(N2CC(=O)NS2(=O)=O)csc1-c1cccc(NC2CCN(S(=O)(=O)Cc3ccccc3)CC2)c1
35 | 3.54 | O=C1CN(c2c(Cl)sc(-c3ccccc3)c2Cl)S(=O)(=O)N1
36 | 0.22 | Cc1c(-c2cccc(OC3CCN(S(=O)(=O)Cc4ccccc4)CC3)c2)sc(-c2nn[nH]n2)c1OCC(=O)O
